Experimental data reported in ChEMBL document CHEMBL1201862, “PubChem BioAssay data set” (2004).
Blank lines part the entries; values can stand above or below the compound they belong to. Calls of active or inactive are those of the source.

Experiments:
P388/ADR = experiment: cells; assay type: functional; details: Mus musculus
SN12K1 = experiment: cells; assay type: functional; details: Homo sapiens
P388 = experiment: cells; assay type: functional; details: Mus musculus
[1] = blockers of HIV-1 envelope-mediated cell-cell fusion – cherry-pick, dose response (AID 652057); assay type: functional, cell-based
[2] = viability loss in CEM21 cells – cell-based, CellTiter-Glo luminescence, cherry-picked, cytotoxicity control for viral fusion inhibitor project, dose response (AID 652042); assay type: functional;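 note: potency for signal decrease meaning cytotoxicity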
[3] = blockers of HIV-1 ZM109 envelope-driven cell-cell fusion – HeLa effector, CEM target cells, luciferase, cherry-pick, dose response (AID 652058); assay type: functional, cell-based;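 note: luciferase signal from HIV-1 Env mediated cell-cell fusion of effector and target cells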
[4] = off-target signal loss in HeLa-CEM21 co-culture – HeLa F-luc CTL cells, cherry-picked, counter-screen for HIV-1 Env fusion inhibitor project, dose response (AID 652040); assay type: functional, cell-based;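 note: potency for signal decrease marking cytotoxic or nonspecific inhibition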
[5] = HIV-1 AD8 envelope cell-cell fusion blockers – cherry-pick, dose response (AID 652062); assay type: functional, cell-based;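 note: luciferase signal from cell-cell fusion driven by HIV-1 clade B AD8 Env; potency is for inhibitors of fusion seen as a drop in luminescence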
[6] = A549 cell cytotoxicity, dose response, cytotoxicity control, plate reader, cherry-pick, antagonist series (AID 743412); assay type: functional, cell-based
[7] = toxicity toward HepG2 liver cells – cell-based, plate reader, cherry-pick, antagonist series, cytotoxicity control, dose response (AID 743416); assay type: functional
[8] = blockade of melanocortin 4 receptor signaling – cell-based, plate reader, cherry pick, counter-screen for LGR2 antagonist project, dose response (AID 743444); assay type: functional;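 note: transfected HEK 293 cells stimulated with alpha-MSH peptide; potency of inhibitors of the alpha-MSH evoked signal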
[9] = viability loss in HEK293 cells – cell-based, plate reader, cherry-picked samples, cytotoxicity control, dose response (AID 743446); assay type: functional
Caspase-3 = biological target: T1, Caspase-3 (Homo sapiens, UniProt P42574); assay type: functional;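 note: Dose-response selectivity test against caspase-3 for candidate inhibitors of sentrin-specific proteases (SENPs)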
T1 sequence (P42574 whole entry): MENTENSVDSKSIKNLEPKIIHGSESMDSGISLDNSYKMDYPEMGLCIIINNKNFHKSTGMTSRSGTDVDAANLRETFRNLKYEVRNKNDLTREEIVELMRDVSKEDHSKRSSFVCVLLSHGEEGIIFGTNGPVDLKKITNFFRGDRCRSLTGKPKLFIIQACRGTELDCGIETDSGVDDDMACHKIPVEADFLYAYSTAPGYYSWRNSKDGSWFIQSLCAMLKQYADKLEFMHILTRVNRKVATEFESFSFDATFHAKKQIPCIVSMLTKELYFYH

[10] = biological target: T2, Sentrin-specific protease 7 (Homo sapiens, UniProt Q9BQF6); assay type: functional;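 note: Luminescence-based dose-response confirmation of ultra-high-throughput screening hits, measuring inhibition of SENP7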
T2 sequence (Q9BQF6 whole entry): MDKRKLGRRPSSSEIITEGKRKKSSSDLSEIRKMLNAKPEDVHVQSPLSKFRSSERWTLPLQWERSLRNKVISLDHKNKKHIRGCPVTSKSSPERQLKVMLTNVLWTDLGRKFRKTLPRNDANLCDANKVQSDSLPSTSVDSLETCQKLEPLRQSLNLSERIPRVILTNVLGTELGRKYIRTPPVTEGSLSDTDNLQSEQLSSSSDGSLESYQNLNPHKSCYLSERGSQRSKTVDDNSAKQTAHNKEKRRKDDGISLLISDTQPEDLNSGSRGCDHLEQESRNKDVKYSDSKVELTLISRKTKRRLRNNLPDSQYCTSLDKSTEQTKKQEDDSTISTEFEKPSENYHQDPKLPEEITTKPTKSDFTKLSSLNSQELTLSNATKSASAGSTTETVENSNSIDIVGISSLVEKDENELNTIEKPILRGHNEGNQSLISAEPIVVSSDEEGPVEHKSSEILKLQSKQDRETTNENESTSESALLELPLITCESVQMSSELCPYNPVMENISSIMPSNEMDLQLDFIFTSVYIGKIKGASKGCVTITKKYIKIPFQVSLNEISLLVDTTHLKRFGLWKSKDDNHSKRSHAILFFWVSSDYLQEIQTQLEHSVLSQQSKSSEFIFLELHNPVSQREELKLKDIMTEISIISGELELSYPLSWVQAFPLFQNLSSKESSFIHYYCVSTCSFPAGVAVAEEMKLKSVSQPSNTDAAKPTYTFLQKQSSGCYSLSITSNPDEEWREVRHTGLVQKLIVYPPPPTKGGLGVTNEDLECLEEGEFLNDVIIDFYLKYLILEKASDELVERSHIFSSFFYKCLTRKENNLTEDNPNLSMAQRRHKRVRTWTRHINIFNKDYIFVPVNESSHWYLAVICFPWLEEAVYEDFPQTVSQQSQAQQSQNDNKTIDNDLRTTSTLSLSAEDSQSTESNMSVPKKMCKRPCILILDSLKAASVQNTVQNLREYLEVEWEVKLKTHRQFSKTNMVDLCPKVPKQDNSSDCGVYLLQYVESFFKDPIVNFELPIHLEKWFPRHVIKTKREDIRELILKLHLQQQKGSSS

[11] = biological target: T3, Sentrin-specific protease 6 (Homo sapiens, UniProt Q9GZR1); assay type: functional;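 note: Luminescence-based dose-response confirmatory assay of SENP6 inhibition, following up an ultra-high-throughput screen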
T3 sequence (Q9GZR1 whole entry): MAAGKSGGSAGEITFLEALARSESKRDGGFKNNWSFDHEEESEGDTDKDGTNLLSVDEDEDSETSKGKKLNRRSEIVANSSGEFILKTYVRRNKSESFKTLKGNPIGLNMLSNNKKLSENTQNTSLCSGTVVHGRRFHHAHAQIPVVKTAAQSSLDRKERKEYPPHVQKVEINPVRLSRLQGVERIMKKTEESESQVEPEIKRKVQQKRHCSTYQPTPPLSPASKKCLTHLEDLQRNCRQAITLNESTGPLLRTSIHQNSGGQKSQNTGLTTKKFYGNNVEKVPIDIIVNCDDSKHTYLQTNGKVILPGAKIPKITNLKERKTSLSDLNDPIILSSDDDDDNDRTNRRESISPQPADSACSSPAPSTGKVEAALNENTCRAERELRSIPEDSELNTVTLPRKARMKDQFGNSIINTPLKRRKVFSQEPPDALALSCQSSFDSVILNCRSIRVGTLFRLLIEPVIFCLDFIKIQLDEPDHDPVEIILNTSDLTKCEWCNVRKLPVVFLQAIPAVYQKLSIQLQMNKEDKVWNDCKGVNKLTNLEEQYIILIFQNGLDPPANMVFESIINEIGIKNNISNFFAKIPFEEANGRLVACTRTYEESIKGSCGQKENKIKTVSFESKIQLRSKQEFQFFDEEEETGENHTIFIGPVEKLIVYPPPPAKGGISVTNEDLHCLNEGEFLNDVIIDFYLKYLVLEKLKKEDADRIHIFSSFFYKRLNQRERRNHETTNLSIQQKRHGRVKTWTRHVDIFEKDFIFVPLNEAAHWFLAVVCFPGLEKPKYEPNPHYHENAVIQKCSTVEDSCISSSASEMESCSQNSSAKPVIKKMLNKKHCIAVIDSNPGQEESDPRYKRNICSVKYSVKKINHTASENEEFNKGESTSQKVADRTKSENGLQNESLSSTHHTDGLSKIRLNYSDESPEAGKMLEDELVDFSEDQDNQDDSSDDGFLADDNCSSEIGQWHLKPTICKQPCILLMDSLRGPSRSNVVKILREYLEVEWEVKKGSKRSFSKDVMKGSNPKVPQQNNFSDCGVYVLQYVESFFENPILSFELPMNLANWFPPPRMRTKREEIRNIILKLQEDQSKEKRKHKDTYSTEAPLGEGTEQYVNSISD

[12] = biological target: T4, Sentrin-specific protease 8 (Homo sapiens, UniProt Q96LD8); assay type: functional;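 note: luminescence read-out of SENP8 inhibition, dose-response confirmation following an ultra-high-throughput screen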
T4 sequence (Q96LD8 whole entry): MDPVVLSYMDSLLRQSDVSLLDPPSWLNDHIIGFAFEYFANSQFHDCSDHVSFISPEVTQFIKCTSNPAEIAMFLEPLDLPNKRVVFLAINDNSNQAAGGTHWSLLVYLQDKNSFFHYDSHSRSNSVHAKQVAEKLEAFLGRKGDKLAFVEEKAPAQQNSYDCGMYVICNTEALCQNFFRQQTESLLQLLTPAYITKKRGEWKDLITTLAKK

[13] = P. falciparum Dd2 growth inhibitors, dose response, SYBR Green, cherry-picked samples (AID 1159567); assay type: functional, cell-based
[14] = toxicity to human hepatoma HepG2 cells – cell-based, cherry-picked samples, cytotoxicity control, dose response (AID 1159577); assay type: functional

SMILES: O=C(O)CCCCCCC[C@@H]1S[C@H]1CCCCCCO
- GI50 (P388/ADR): > 100 µM (inactive)
- GI50 (SN12K1): > 100 µM (inactive)
- GI50 (P388): > 100 µM (inactive)

SMILES: CC(C)CC/N=c1/cc2n(-c3ccc(Cl)cc3)c3ccccc3nc-2cc1Nc1ccc(Cl)cc1
- GI50 (P388/ADR): 2.19 µM (inactive)
- GI50 (SN12K1): 6.4 µM (inactive)
- GI50 (P388): 2.82 µM (inactive)

SMILES: Nc1nc(N)nc(-c2ccccc2NS(=O)(=O)c2ccc([N+](=O)[O-])cc2)n1
- GI50 (P388/ADR): 38.5 µM (inactive)
- GI50 (SN12K1): > 56.5 µM (inactive)
- GI50 (P388): 57.1 µM (inactive)

SMILES: CCCCCCCCN1C(=O)[C@H](CC(=O)NCCCC)C[C@@]2(C(=O)OCC)CCCC=C12
- AC50 [1]: 7.2 µM (active)
- AC50 [2]: 37.5 µM (active)
- AC50 [3]: 23.2 µM (active)
- AC50 [4]: 66.4 µM (active)
- AC50 [5]: 16.3 µM (active)

SMILES: C[C@H]1CN([C@@H](C)CO)C(=O)Cc2cc(NC(=O)Nc3ccc(F)cc3)ccc2O[C@H]1CN(C)CC1CCCCC1
- AC50 [6]: 9.61 µM (active)
- AC50 [7]: 16.6 µM (active)
- AC50 [8]: 55.8 µM (active)
- AC50 [9]: 15.4 µM (active)

- IC50 (Caspase-3): 21.1 µM (active)
- IC50 [10]: 7.1 µM (active)
- IC50 [11]: 25 µM (active)
SMILES: COc1ccc(/C=N/N2CCN(c3ccccc3OC)CC2)cc1Br
- IC50 [12]: 54.9 µM (active)

SMILES: O=S(=O)(c1ccc(F)cc1)N1CCCCN2[C@H](CO)[C@H](c3ccc(-c4ccccc4F)cc3)[C@H]2C1
- AC50 [13]: 1.97 µM (active)
- AC50 [14]: 11 µM (active)

SMILES: Cc1cccc(-c2ccc([C@H]3[C@H]4CN(CCC(F)(F)F)CCCCN4[C@H]3CO)cc2)c1
- AC50 [13]: 1.08 µM (active)
- AC50 [14]: 9.1 µM (active)

SMILES: C[C@H](CO)N1C[C@H](C)[C@@H](CN(C)Cc2ccccc2)Oc2ccc(NC(=O)Nc3ccc(F)cc3)cc2CC1=O
- AC50 [13]: 4.02 µM (active)
- AC50 [14]: > 39 µM (inactive)

SMILES: CCCCCCCCCCCCCCCC(=O)OCC1OC(n2ccc(N)nc2=O)C(O)C1O (stereo not drawn)
- AC50 [1]: 0.557 µM (active)
- AC50 [2]: 24 µM (active)
- AC50 [3]: < 0.26 µM (active)
- AC50 [4]: 0.44 µM (active)
- AC50 [5]: 0.922 µM (active)
